# How the values were obtained:
# [1] = target: T1, 5-hydroxytryptamine receptor 1D (Homo sapiens, UniProt P28221); assay: Ability to displace [3H]-5-HT from recombinant human 5-hydroxytryptamine 1D receptor stably expressed in CHO cells determined in vitro; type: cell-based
# [2] = target: T1, 5-hydroxytryptamine receptor 1D; assay: Measurement of agonist-induced [35S]-GTP gamma-S binding in CHO cells stably transfected with 5-hydroxytryptamine 1D receptor; type: functional, cell-based
# [3] = target: Serotonin 1 receptors; 5-HT1B & 5-HT1D (Homo sapiens) (UniProt P28222+P28221); assay: Binding selectivity for h5-HT1D receptor to that of h5-HT1B receptor; type: protein assay
# [4] = target: 5-hydroxytryptamine receptor 1B (Homo sapiens, UniProt P28222); assay: Ability to displace [3H]5-HT from recombinant human 5-hydroxytryptamine 1B receptor stably expressed in CHO cells determined in vitro; type: cell-based
# [5] = target: T1, 5-hydroxytryptamine receptor 1D; assay: Maximum stimulation of [35S]GTP gamma-S binding expressed relative to the maximal effect produced by 5-hydroxytryptamine 1D receptor; type: functional
# T1 sequence (P28221 whole entry): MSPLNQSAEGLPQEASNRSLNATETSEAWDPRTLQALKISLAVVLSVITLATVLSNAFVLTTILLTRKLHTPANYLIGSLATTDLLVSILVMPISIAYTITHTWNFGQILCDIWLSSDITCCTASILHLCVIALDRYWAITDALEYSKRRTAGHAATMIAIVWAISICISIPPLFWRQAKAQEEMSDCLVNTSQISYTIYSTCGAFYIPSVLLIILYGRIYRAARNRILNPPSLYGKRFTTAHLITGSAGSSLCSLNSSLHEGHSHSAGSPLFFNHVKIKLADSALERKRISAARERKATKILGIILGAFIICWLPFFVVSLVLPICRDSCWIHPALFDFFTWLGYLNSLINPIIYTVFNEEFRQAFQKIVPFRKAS
# Chain of 5-hydroxytryptamine receptor 1B (P28222 whole entry): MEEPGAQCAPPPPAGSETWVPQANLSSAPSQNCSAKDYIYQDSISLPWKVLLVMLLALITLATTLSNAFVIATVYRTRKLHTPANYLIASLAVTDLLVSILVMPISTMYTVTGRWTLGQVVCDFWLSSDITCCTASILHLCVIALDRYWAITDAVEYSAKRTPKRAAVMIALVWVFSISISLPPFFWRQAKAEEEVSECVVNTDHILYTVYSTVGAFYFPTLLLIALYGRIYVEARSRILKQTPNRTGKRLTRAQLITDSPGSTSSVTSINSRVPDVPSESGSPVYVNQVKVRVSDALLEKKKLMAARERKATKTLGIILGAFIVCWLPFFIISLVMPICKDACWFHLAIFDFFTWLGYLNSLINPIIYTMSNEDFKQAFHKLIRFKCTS
SMILES,IC50 [1],ED50 [2],Ratio [3],IC50 [4],Activity [5]
CN(CC1CC1)CC1(O)CCN(CCCc2c[nH]c3ccc(-n4cnnc4)cc23)CC1,1.35 nM,1.1 nM,20,27 nM,79%
CC(C)(C)OC(=O)NCC1(O)CCN(CCCc2c[nH]c3ccc(-n4cnnc4)cc23)CC1,21 nM,9.7 nM,16,340 nM,86%
CC(C)(C)CNCC1(O)CCN(CCCc2c[nH]c3ccc(-n4cnnc4)cc23)CC1,7.3 nM,,12,85 nM,
Cc1ccccc1CNCC1(O)CCN(CCCc2c[nH]c3ccc(-n4cnnc4)cc23)CC1,4 nM,,21,83 nM,
OC1(CNCc2ccccn2)CCN(CCCc2c[nH]c3ccc(-n4cnnc4)cc23)CC1,3.2 nM,3.2 nM,17,55 nM,96%
CC(=O)Nc1ccc(CNCC2(O)CCN(CCCc3c[nH]c4ccc(-n5cnnc5)cc34)CC2)cc1,11 nM,14 nM,3,30 nM,102%
CN(Cc1ccccc1)CC1(O)CCN(CCCc2c[nH]c3ccc(-n4cnnc4)cc23)CC1,1.2 nM,3.8 nM,80,96 nM,91%
OC1(Cc2ccccc2)CCN(CCCc2c[nH]c3ccc(-n4cnnc4)cc23)CC1,0.1 nM,0.25 nM,251,32 nM,64%
OC1(CNCC2CC2)CCN(CCCc2c[nH]c3ccc(-n4cnnc4)cc23)CC1,4.5 nM,,13,57 nM,
Cc1ccccc1CN(C)CC1(O)CCN(CCCc2c[nH]c3ccc(-n4cnnc4)cc23)CC1,1.3 nM,3.7 nM,68,89 nM,90%
CC1(C)CCCN(CC2(O)CCN(CCCc3c[nH]c4ccc(-n5cnnc5)cc34)CC2)C1,0.65 nM,0.9 nM,29,19 nM,67%
OC1(CNCc2ccccc2)CCN(CCCc2c[nH]c3ccc(-n4cnnc4)cc23)CC1,0.45 nM,2.2 nM,106,47 nM,79%
CC(C)CN(C)CC1(O)CCN(CCCc2c[nH]c3ccc(-n4cnnc4)cc23)CC1,0.65 nM,1.7 nM,47,30 nM,95%
CN(CC(C)(C)C)CC1(O)CCN(CCCc2c[nH]c3ccc(-n4cnnc4)cc23)CC1,1.8 nM,1.6 nM,34,61 nM,60%
CN(CC1CCCCC1)CC1(O)CCN(CCCc2c[nH]c3ccc(-n4cnnc4)cc23)CC1,1.2 nM,1.4 nM,22,27 nM,69%

# — ChEMBL document CHEMBL1131900, “4-Hydroxy-1-[3-(5-(1,2,4-triazol-4-yl)-1H-indol-3-yl)propyl]piperidines: selective h5-HT1D agonists for the treatment of migraine” (Bioorg Med Chem Lett, 1999)
